Legend:
CCRF-SB (B-ALL) = assay: Net production of TRP metabolites in media samples, CCRF-SB; type: cell-based
DOAY (medulloblastoma) = assay: Net production of TRP metabolites in media samples, DOAY; type: cell-based
SUP-B15 (B-ALL) = assay: Net production of TRP metabolites in media samples, SUP-B15; type: cell-based
CCF-STTG1 (astrocytoma) = assay: Net production of TRP metabolites in media samples, CCF-STTG1; type: cell-based, human
Text: (§1) Under physiological conditions in the brain, kynurenine metabolism is driven by microglial cells and astrocytes with preferential production of QUIN and KA respectively. […] This may have been due to T cells producing cytokines and/or intermediate metabolites that are further metabolized to QUIN by the cells. In order to identify specific factors that may lead to tryptophan-kynurenine pathway up-regulation for QUIN production, we tested a panel of cytokine and chemokines implicated in NTX and CRS. […] We initially evaluated the panel of the select factors individually (FIGS. 16 A-B). We selected several cytokines based on their effect on rate-limiting enzymes for QUIN production. These included IFNγ, TNF, […], CXCL10 and […]. These enzymes were selected based on their regulation of key enzymes, KMO and KYNU, which may lead to supraphysiological accumulation of QUIN. These factors were further evaluated, individually or in combination, on astrocytoma, microglial, and primary monocyte-derived macrophages for mRNA levels of kynurenine pathway enzymes and kynurenine metabolites production (FIG. 17).

ALL3.1 (B-ALL) = assay: Net production of TRP metabolites in media samples, ALL3.1; type: cell-based
RS4; 11 (B-ALL) = assay: Net production of TRP metabolites in media samples, RS4; 11; type: cell-based
HMC3 (microglia) = assay: Net production of TRP metabolites in media samples, HMC3; type: cell-based, human
Text: as §1

THP-1 (monocyte) = assay: Net production of TRP metabolites in media samples, THP-1; type: cell-based
BV173 (B-ALL) = assay: Net production of TRP metabolites in media samples, BV173; type: cell-based
KARPAS231 (B-ALL) = assay: Net production of TRP metabolites in media samples, KARPAS231; type: cell-based
HCN2 (cortical neuron) = assay: Net production of TRP metabolites in media samples, HCN2; type: cell-based

IFNγ: cytokine
Net production of TRP metabolites in media samples: 3-HK (CCRF-SB (B-ALL)): 1.9 ± 7.3 | Net production of TRP metabolites in media samples: HAA (CCRF-SB (B-ALL)): 5.9 ± 0.5 | Net production of TRP metabolites in media samples: KA (CCRF-SB (B-ALL)): −8.3 ± 5.5 | Net production of TRP metabolites in media samples: KYN (CCRF-SB (B-ALL)): 410.1 ± 79.1 | Net production of TRP metabolites in media samples: QUIN (CCRF-SB (B-ALL)): −53.44 ± 37.8 | Net production of TRP metabolites in media samples: 3-HK (DOAY (medulloblastoma)): −13.38 ± 1.5 | Net production of TRP metabolites in media samples: HAA (DOAY (medulloblastoma)): 10.66 ± 0.9 | Net production of TRP metabolites in media samples: KA (DOAY (medulloblastoma)): 11.08 ± 0.9 | Net production of TRP metabolites in media samples: KYN (DOAY (medulloblastoma)): 6757.9 ± 129.3 | Net production of TRP metabolites in media samples: QUIN (DOAY (medulloblastoma)): 34.8 ± 7^ | Net production of TRP metabolites in media samples: 3-HK (SUP-B15 (B-ALL)): 18.5 ± 14.8 | Net production of TRP metabolites in media samples: HAA (SUP-B15 (B-ALL)): 6.92 ± 0.9 | Net production of TRP metabolites in media samples: KA (SUP-B15 (B-ALL)): −7.42 ± 3.2 | Net production of TRP metabolites in media samples: KYN (SUP-B15 (B-ALL)): 299.52 ± 209^ | Net production of TRP metabolites in media samples: QUIN (SUP-B15 (B-ALL)): −70 ± 31 | Net production of TRP metabolites in media samples: 3-HK (CCF-STTG1 (astrocytoma)): −12.24 ± 1.2 | Net production of TRP metabolites in media samples: HAA (CCF-STTG1 (astrocytoma)): 8.88 ± 0.2 | Net production of TRP metabolites in media samples: KA (CCF-STTG1 (astrocytoma)): 8.2 ± 2.9 | Net production of TRP metabolites in media samples: KYN (CCF-STTG1 (astrocytoma)): 12049.08 ± 526 | Net production of TRP metabolites in media samples: QUIN (CCF-STTG1 (astrocytoma)): 1.34 ± 16 | Net production of TRP metabolites in media samples: 3-HK (ALL3.1 (B-ALL)): 8.76 ± 7.8 | Net production of TRP metabolites in media samples: KA (ALL3.1 (B-ALL)): −3.32 ± 3.4 | Net production of TRP metabolites in media samples: KYN (ALL3.1 (B-ALL)): 55.94 ± 132 | Net production of TRP metabolites in media samples: QUIN (ALL3.1 (B-ALL)): 40.94 ± 140.3 | Net production of TRP metabolites in media samples: 3-HK (RS4; 11 (B-ALL)): 0.12 ± 1.4 | Net production of TRP metabolites in media samples: KA (RS4; 11 (B-ALL)): −2.8 ± 7.2 | Net production of TRP metabolites in media samples: KYN (RS4; 11 (B-ALL)): 26.58 ± 19.7 | Net production of TRP metabolites in media samples: QUIN (RS4; 11 (B-ALL)): −4.26 ± 37.4 | Net production of TRP metabolites in media samples: 3-HK (HMC3 (microglia)): 20.8 ± 20.5 | Net production of TRP metabolites in media samples: HAA (HMC3 (microglia)): 0.76 ± 3.3 | Net production of TRP metabolites in media samples: KA (HMC3 (microglia)): 48.46 ± 25.8 | Net production of TRP metabolites in media samples: KYN (HMC3 (microglia)): 45327.9 ± 11654 | Net production of TRP metabolites in media samples: QUIN (HMC3 (microglia)): 55.88 ± 34^ | Net production of TRP metabolites in media samples: 3-HK (THP-1 (monocyte)): 1.78 ± 1.9 | Net production of TRP metabolites in media samples: KA (THP-1 (monocyte)): −7.14 ± 5.2 | Net production of TRP metabolites in media samples: KYN (THP-1 (monocyte)): 2593.4 ± 153.7 | Net production of TRP metabolites in media samples: QUIN (THP-1 (monocyte)): −26.4 ± 68^ | Net production of TRP metabolites in media samples: 3-HK (BV173 (B-ALL)): 1.06 ± 2.6 | Net production of TRP metabolites in media samples: KA (BV173 (B-ALL)): −4.58 ± 5^ | Net production of TRP metabolites in media samples: KYN (BV173 (B-ALL)): 46.72 ± 51.1 | Net production of TRP metabolites in media samples: QUIN (BV173 (B-ALL)): 6.54 ± 42.2 | Net production of TRP metabolites in media samples: 3-HK (KARPAS231 (B-ALL)): 90.74 ± 9.3 | Net production of TRP metabolites in media samples: HAA (KARPAS231 (B-ALL)): 244.46 ± 24.4 | Net production of TRP metabolites in media samples: KA (KARPAS231 (B-ALL)): −9.22 ± 3.8 | Net production of TRP metabolites in media samples: KYN (KARPAS231 (B-ALL)): 1247.28 ± 62.2 | Net production of TRP metabolites in media samples: QUIN (KARPAS231 (B-ALL)): −26.02 ± 27.3 | Net production of TRP metabolites in media samples: 3-HK (HCN2 (cortical neuron)): −4.84 ± 8.3 | Net production of TRP metabolites in media samples: HAA (HCN2 (cortical neuron)): 6.34 ± 1.1 | Net production of TRP metabolites in media samples: KA (HCN2 (cortical neuron)): 6.48 ± 4.8 | Net production of TRP metabolites in media samples: KYN (HCN2 (cortical neuron)): 1597.26 ± 77 | Net production of TRP metabolites in media samples: QUIN (HCN2 (cortical neuron)): 25.26 ± 27.11

Il6: cytokine
Net production of TRP metabolites in media samples: 3-HK (CCRF-SB (B-ALL)): 27.64 ± 22.5 | Net production of TRP metabolites in media samples: HAA (CCRF-SB (B-ALL)): 9.34 ± 2.1 | Net production of TRP metabolites in media samples: KA (CCRF-SB (B-ALL)): −6.88 ± 1.5 | Net production of TRP metabolites in media samples: KYN (CCRF-SB (B-ALL)): 438.12 ± 308.6 | Net production of TRP metabolites in media samples: QUIN (CCRF-SB (B-ALL)): −51.14 ± 13 ^ | Net production of TRP metabolites in media samples: 3-HK (DOAY (medulloblastoma)): −11.68 ± 1.2 | Net production of TRP metabolites in media samples: HAA (DOAY (medulloblastoma)): 11.14 ± 0.8 | Net production of TRP metabolites in media samples: KA (DOAY (medulloblastoma)): 6.16 ± 4.2 | Net production of TRP metabolites in media samples: KYN (DOAY (medulloblastoma)): 41.5 ± 21.6 | Net production of TRP metabolites in media samples: QUIN (DOAY (medulloblastoma)): 29.66 ± 29.4 | Net production of TRP metabolites in media samples: 3-HK (SUP-B15 (B-ALL)): 16.58 ± 13.5 | Net production of TRP metabolites in media samples: HAA (SUP-B15 (B-ALL)): 6.44 ± 0.8 | Net production of TRP metabolites in media samples: KA (SUP-B15 (B-ALL)): −6.4 ± 3 | Net production of TRP metabolites in media samples: KYN (SUP-B15 (B-ALL)): 309 ± 182 | Net production of TRP metabolites in media samples: QUIN (SUP-B15 (B-ALL)): −65.6 ± 16^ | Net production of TRP metabolites in media samples: 3-HK (CCF-STTG1 (astrocytoma)): −8.16 ± 2.2 | Net production of TRP metabolites in media samples: HAA (CCF-STTG1 (astrocytoma)): 11 ± 0.4 | Net production of TRP metabolites in media samples: KA (CCF-STTG1 (astrocytoma)): 5.16 ± 1.1 | Net production of TRP metabolites in media samples: KYN (CCF-STTG1 (astrocytoma)): 4385.94 ± 43.3 | Net production of TRP metabolites in media samples: QUIN (CCF-STTG1 (astrocytoma)): 17.06 ± 11^ | Net production of TRP metabolites in media samples: 3-HK (ALL3.1 (B-ALL)): 1.48 ± 5.3 | Net production of TRP metabolites in media samples: KA (ALL3.1 (B-ALL)): −2.36 ± 6^ | Net production of TRP metabolites in media samples: KYN (ALL3.1 (B-ALL)): 95.16 ± 123.3 | Net production of TRP metabolites in media samples: QUIN (ALL3.1 (B-ALL)): 8.66 ± 36.5 | Net production of TRP metabolites in media samples: 3-HK (RS4; 11 (B-ALL)): −1.36 ± 1.1 | Net production of TRP metabolites in media samples: KA (RS4; 11 (B-ALL)): −6.52 ± 2.3 | Net production of TRP metabolites in media samples: KYN (RS4; 11 (B-ALL)): −3.36 ± 38.7 | Net production of TRP metabolites in media samples: QUIN (RS4; 11 (B-ALL)): 16.28 ± 63.8 | Net production of TRP metabolites in media samples: 3-HK (HMC3 (microglia)): 8.44 ± 18 | Net production of TRP metabolites in media samples: HAA (HMC3 (microglia)): 0.12 ± 2.4 | Net production of TRP metabolites in media samples: KA (HMC3 (microglia)): 6.3 ± 3.8 | Net production of TRP metabolites in media samples: KYN (HMC3 (microglia)): 545.08 ± 313^ | Net production of TRP metabolites in media samples: QUIN (HMC3 (microglia)): 61.04 ± 23.7 | Net production of TRP metabolites in media samples: 3-HK (THP-1 (monocyte)): 0.5 ± 1.2 | Net production of TRP metabolites in media samples: KA (THP-1 (monocyte)): −6.74 ± 6.2 | Net production of TRP metabolites in media samples: KYN (THP-1 (monocyte)): 176.36 ± 33 | Net production of TRP metabolites in media samples: QUIN (THP-1 (monocyte)): −5.14 ± 52.9 | Net production of TRP metabolites in media samples: 3-HK (BV173 (B-ALL)): 12.32 ± 11.8 | Net production of TRP metabolites in media samples: KA (BV173 (B-ALL)): −3 ± 3 | Net production of TRP metabolites in media samples: KYN (BV173 (B-ALL)): 244.92 ± 172.4 | Net production of TRP metabolites in media samples: QUIN (BV173 (B-ALL)): 13.06 ± 15.6 | Net production of TRP metabolites in media samples: 3-HK (KARPAS231 (B-ALL)): 1.48 ± 2.2 | Net production of TRP metabolites in media samples: HAA (KARPAS231 (B-ALL)): 8.68 ± 1.5 | Net production of TRP metabolites in media samples: KA (KARPAS231 (B-ALL)): −7.58 ± 4.2 | Net production of TRP metabolites in media samples: KYN (KARPAS231 (B-ALL)): −77.44 ± 27.4 | Net production of TRP metabolites in media samples: QUIN (KARPAS231 (B-ALL)): −37.78 ± 29.5 | Net production of TRP metabolites in media samples: 3-HK (HCN2 (cortical neuron)): 4.96 ± 0.8 | Net production of TRP metabolites in media samples: HAA (HCN2 (cortical neuron)): 5.48 ± 0.8 | Net production of TRP metabolites in media samples: KA (HCN2 (cortical neuron)): 0.86 ± 2.1 | Net production of TRP metabolites in media samples: KYN (HCN2 (cortical neuron)): −2.08 ± 19^ | Net production of TRP metabolites in media samples: QUIN (HCN2 (cortical neuron)): 0.94 ± 12.9

Reference: US20210181179A1, “DIAGNOSIS AND TREATMENT OF IMMUNOTHERAPY-INDUCED NEUROTOXICITY” (MEMORIAL SLOAN KETTERING CANCER CENTER, priority 2018, published 2021)
